Our source for the Activity and IC50 values is ChEMBL document CHEMBL1147292, “The structure of ulithiacyclamide B. Antitumor evaluation of cyclic peptides and macrolides from Lissoclinum patella” (J Nat Prod, 1989).

Assay [1] deals with L1210. Nature of the assay: Cytotoxicity against mouse L1210 cells at 1.5 ug/disk by corbett disk diffusion assay. It counts as functional. For orientation: A growth-free zone around the sample is the usual read-out of agar diffusion tests.
For assay [2], the system named is MC-38. Nature of the assay: Cytotoxicity against mouse C38 cells at 1.5 ug/disk by corbett disk diffusion assay. It counts as functional.
The test system of another assay is KB. The assay is described as follows: Cytotoxicity against human KB cells. Format: functional, cell-based.
The subject of assay [3] is L1210. Nature of the assay: Cytotoxicity against mouse L1210 cells at 200 ug/disk by corbett disk diffusion assay. It counts as functional.
Assay [4] concerns MC-38. Nature of the assay: Cytotoxicity against mouse C38 cells at 200 ug/disk by corbett disk diffusion assay. Format: functional.
Assay [5] in a line: Cytotoxicity against human H116 cells at 200 ug/disk by corbett disk diffusion assay. It counts as functional.
Assay [6] in a line: Cytotoxicity against human H116 cells at 10 ug/disk by corbett disk diffusion assay. Format: functional.
In assay [7] the test system is MC-38. Nature of the assay: Cytotoxicity against mouse C38 cells at 10 ug/disk by corbett disk diffusion assay. Format: functional.
The test system of assay [8] is L1210. Nature of the assay: Cytotoxicity against mouse L1210 cells at 10 ug/disk by corbett disk diffusion assay. Format: functional.
Assay [9] concerns L1210. The assay is described as follows: Cytotoxicity against mouse L1210 cells at 100 ug/disk by corbett disk diffusion assay. It counts as functional.
Assay [10] has as its system MC-38. Nature of the assay: Cytotoxicity against mouse C38 cells at 100 ug/disk by corbett disk diffusion assay. Format: functional.
A short description of assay [11]: Cytotoxicity against human H116 cells at 100 ug/disk by corbett disk diffusion assay. Format: functional.
In assay [12] the test system is L1210. The assay is described as follows: Cytotoxicity against mouse L1210 cells at 0.15 ug/disk by corbett disk diffusion assay. Format: functional.
The nature of assay [13]: Cytotoxicity against mouse Panc03 cells at 1.5 ug/disk by corbett disk diffusion assay. Format: functional.
Assay [14] deals with MC-38. The assay is described as follows: Cytotoxicity against mouse C38 cells at 5 ug/disk by corbett disk diffusion assay. Format: functional.
The subject of assay [15] is L1210. Nature of the assay: Cytotoxicity against mouse L1210 cells at 5 ug/disk by corbett disk diffusion assay. Format: functional.
Assay [16] in a line: Cytotoxicity against human H116 cells at 5 ug/disk by corbett disk diffusion assay. Format: functional.

Molecules are shown by their SMILES. ≈ marks a conversion by molar mass, not a printed value.

For `O=c1[nH]cc(F)c(=O)[nH]1` [FLUOROURACIL], the Activity in the assay on L1210 [1] is 0 Zone units; in the assay with MC-38 [2] it was 800 Zone units.
The IC50 is the concentration that inhibits the measured activity by half. Regarding `CC[C@H](C)[C@@H]1NC(=O)c2csc(n2)[C@@H](C)NC(=O)[C@H]2N=C(O[C@@H]2C)[C@H](C(C)C)NC(=O)c2csc(n2)[C@@H](Cc2ccccc2)NC(=O)[C@H]2N=C1O[C@@H]2C` [PATELLAMIDE C], in the assay on KB, it took 6 µg/mL (≈ 7.86 µM) to reach half-maximal inhibition (IC50). The Activity was 260 Zone units in the assay with L1210 [3], 170 Zone units in the assay with MC-38 [4] and 0 Zone units in assay [5].
For `CC(C)C[C@H]1NC(=O)[C@H]2N=C(O[C@@H]2C)[C@H]2CSSC[C@@H](NC(=O)c3csc1n3)C1=N[C@H](C(=O)N[C@H](Cc3ccccc3)c3nc(cs3)C(=O)N2)[C@@H](C)O1` [ULITHIACYCLAMIDE B], the figures for the Activity (in [6]; with MC-38 [7]; in the assay on L1210 [8]) were 280 Zone units, 290 Zone units and 270 Zone units, respectively. In the assay with KB, this compound yielded an IC50 of 0.017 µg/mL (≈ 0.0213 µM).
`CC(C)C[C@H]1NC(=O)[C@H]2N=C(O[C@@H]2C)[C@H]2CSSC[C@@H](NC(=O)c3csc1n3)C1=N[C@H](C(=O)N[C@H](CC(C)C)c3nc(cs3)C(=O)N2)[C@@H](C)O1` [ULITHIACYCLAMIDE] registered an IC50 in the assay with KB of 0.035 µg/mL (≈ 0.0459 µM).
In the case of `CC[C@H](C)[C@@H]1NC(=O)c2csc(n2)[C@@H](C)NC(=O)[C@H]2N=C(O[C@@H]2C)[C@H](CC(C)C)NC(=O)c2csc(n2)[C@@H](Cc2ccccc2)NC(=O)[C@H]2N=C1O[C@@H]2C` [PATELLAMIDE B], in the assay on KB, the IC50 was more than 4 µg/mL. Besides, the Activity in the assay on L1210 [9] is reported as 50 Zone units; in the assay on MC-38 [10], 150 Zone units; in assay [11], 0 Zone units.
The corresponding values for `CC[C@H](C)[C@@H]1NC(=O)c2csc(n2)[C@@H](C(C)C)NC(=O)[C@H]2N=C(O[C@@H]2C)[C@H]([C@@H](C)CC)NC(=O)c2csc(n2)[C@@H](C(C)C)NC(=O)[C@@H]2COC1=N2` [PATELLAMIDE A] are 3 µg/mL (≈ 4.04 µM), 150 Zone units, 160 Zone units and 0 Zone units.
For the compound `Nc1ccn([C@@H]2O[C@H](CO)[C@@H](O)[C@@H]2O)c(=O)n1` [CYTARABINE], the values for the Activity (in the assay with L1210 [12]; in assay [13]) were 550 Zone units and 0 Zone units, respectively.
Turning to `COC1/C(C)=C/C=C/C(C)C(C(C)(O)/C=C(/C)Cc2csc(C3(C)OC3C)n2)OC(=O)C(C)(C(=O)OC(C)C(C)O)CCC(C)CC(O)C(C)C(=O)C(C)/C=C\CC(C)C(O)C1O` (centres undefined) [PATELLAZOLE B], in the assay on KB, the IC50 is 0.0003 µg/mL (≈ 0.000332 µM). For the same compound, the Activity is on record as 460 Zone units with MC-38 [14], 300 Zone units in the assay with L1210 [15] and 460 Zone units in [16].
In the assay on KB, `CCC(C)OC(=O)C1(C)CCC(C)CC(O)C(C)C(=O)C(C)/C=C\CC(C)C(O)C(O)C(OC)/C(C)=C/C=C/C(C)C(C(C)(O)/C=C(/C)Cc2csc(C3(C)OC3C)n2)OC1=O` (centres undefined) [PATELLAZOLE A] came in with an IC50 of 0.01 µg/mL (≈ 0.0113 µM). Further, the Activity with MC-38 [14] is 320 Zone units; in the assay on L1210 [15], 240 Zone units; in assay [16] it was 370 Zone units.
